Test results as given in patent US20230151003A1, “COMPOUNDS AND METHODS OF USE” (Exelixis, Inc., priority 2020, published 2023).

Tests used:
KDR = KDR (Homo sapiens, UniProt P35968); experiment: KDR autophosphorylation ELISA in HUVEC cells; type: cell-based; design: endogenous in cells; host or cells: HUVEC (Lonza #C2519A); conditions: Table 3 Cellular Activities, VEGF165-stimulated, phospho-KDR ELISA
In short: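 HUVEC, 24 h serum-free starvation; cpd 8-pt dilution, 0.3% DMSO final, 1 h; VEGF165 100 ng/mL, 5 min; cold lysis; phospho-KDR ELISA; IC50, 4PL.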

Met = Met (Homo sapiens, UniProt P08581); experiment: Met autophosphorylation ELISA in PC-3 cells; type: cell-based; design: endogenous in cells; host or cells: PC-3 prostate cancer cells (ATCC #CRL-1435); conditions: Table 3 Cellular Activities, HGF-stimulated, phospho-Met ELISA, read-out: c-Met IC50
Met, sequence (P08581 25-1390): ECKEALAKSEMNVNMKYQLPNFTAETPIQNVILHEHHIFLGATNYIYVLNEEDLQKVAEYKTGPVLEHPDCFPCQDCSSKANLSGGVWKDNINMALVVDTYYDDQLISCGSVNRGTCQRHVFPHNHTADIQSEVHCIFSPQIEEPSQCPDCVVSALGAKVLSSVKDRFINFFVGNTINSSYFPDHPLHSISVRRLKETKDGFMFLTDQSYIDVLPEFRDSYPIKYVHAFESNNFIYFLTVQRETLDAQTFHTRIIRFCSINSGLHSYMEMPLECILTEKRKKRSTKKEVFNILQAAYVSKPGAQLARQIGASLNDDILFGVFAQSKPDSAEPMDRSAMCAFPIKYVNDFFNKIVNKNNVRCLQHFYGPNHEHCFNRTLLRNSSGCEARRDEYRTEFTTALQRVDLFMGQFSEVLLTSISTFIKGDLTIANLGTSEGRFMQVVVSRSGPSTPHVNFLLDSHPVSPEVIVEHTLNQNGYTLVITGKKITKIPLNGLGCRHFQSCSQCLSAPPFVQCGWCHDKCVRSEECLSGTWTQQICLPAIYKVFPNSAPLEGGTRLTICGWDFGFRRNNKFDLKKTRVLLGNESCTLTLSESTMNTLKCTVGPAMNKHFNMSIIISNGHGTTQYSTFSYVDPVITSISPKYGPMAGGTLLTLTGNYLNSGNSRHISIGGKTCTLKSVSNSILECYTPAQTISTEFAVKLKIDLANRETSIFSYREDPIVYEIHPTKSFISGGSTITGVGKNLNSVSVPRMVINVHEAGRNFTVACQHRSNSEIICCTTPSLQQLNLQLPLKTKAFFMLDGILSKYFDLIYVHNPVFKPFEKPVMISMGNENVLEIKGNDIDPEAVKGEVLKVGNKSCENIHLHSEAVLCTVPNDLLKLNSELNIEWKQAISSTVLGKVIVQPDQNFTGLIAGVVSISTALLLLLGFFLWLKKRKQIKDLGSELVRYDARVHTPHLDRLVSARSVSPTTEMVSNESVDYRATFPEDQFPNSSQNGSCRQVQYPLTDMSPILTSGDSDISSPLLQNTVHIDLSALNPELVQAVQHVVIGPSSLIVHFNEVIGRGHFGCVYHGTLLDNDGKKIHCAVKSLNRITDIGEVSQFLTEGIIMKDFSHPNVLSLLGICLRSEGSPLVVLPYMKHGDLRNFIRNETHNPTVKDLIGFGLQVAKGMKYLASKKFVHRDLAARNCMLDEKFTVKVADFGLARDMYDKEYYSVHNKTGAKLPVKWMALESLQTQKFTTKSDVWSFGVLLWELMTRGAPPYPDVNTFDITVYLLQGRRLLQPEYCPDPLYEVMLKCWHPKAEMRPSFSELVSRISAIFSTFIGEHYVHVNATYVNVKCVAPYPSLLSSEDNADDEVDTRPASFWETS
In short: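 IC50 derived by 4-parameter logistic regression of phospho-Met (panTyr) sandwich ELISA signal, scaled between HGF-stimulated DMSO and reference-inhibitor lysates. PC-3 cells, serum-starved 3 h, received an 8-point compound series (0.3% DMSO) for 1 h before 10 min stimulation with 100 ng/mL human HGF.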

KDR, sequence (P35968 20-1356): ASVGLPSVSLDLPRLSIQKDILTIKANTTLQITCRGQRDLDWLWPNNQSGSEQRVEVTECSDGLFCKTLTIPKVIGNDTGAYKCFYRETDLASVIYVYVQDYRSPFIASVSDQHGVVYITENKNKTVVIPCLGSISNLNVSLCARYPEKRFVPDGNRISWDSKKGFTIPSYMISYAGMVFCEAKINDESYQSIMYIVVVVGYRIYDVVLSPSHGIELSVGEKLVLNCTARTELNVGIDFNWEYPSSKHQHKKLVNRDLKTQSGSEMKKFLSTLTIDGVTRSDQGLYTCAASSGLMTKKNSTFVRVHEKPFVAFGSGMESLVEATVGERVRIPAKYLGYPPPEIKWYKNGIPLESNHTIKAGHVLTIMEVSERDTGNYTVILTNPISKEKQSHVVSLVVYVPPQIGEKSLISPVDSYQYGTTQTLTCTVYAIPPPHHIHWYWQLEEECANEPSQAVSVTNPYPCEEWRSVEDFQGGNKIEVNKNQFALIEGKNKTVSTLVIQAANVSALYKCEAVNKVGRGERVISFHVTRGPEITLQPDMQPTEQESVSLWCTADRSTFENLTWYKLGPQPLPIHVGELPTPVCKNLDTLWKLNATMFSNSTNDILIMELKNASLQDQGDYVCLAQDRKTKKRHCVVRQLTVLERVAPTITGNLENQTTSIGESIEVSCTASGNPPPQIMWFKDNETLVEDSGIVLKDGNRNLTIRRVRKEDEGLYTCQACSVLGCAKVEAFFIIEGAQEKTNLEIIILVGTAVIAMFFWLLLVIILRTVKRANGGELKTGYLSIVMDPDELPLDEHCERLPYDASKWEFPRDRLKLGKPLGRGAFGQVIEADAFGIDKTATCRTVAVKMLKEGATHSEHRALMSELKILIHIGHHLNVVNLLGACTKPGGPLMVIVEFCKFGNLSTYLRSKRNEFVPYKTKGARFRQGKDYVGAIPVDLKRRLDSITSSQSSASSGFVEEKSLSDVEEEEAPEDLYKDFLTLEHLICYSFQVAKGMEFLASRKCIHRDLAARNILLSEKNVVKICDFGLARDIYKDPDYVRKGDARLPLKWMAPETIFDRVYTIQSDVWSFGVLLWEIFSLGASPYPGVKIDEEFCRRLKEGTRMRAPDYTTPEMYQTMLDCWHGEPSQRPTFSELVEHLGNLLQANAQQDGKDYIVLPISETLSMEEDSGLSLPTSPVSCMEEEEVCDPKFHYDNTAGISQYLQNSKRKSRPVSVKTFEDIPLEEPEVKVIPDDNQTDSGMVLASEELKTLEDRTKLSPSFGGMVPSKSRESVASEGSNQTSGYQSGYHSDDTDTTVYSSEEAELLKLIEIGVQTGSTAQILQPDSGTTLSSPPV

SMILES	IC50 (KDR) [nM]	IC50 (Met) [nM]
COc1cc2nccc(Oc3ccc(NC(=O)c4c(C)ncc(-c5cccnc5)c4O)cc3F)c2nc1OC [Compound 228, N-[4-[(6,7-Dimethoxy-1,5-naphthyridin-4-yl)oxy]-3-fluorophenyl]-4-hydroxy-2-methyl-5-pyridin-3-ylpyridine-3-carboxamide]	≤ 100	≤ 100
COc1cc2nccc(Oc3ccc(NC(=O)c4cnc(C)c(-c5cccs5)c4O)cc3)c2nc1OC [Compound 256, N-[4-[(6,7-Dimethoxy-1,5-naphthyridin-4-yl)oxy]phenyl]-4-hydroxy-6-methyl-5-thiophen-2-ylpyridine-3-carboxamide]	≤ 100	≤ 100
COc1cnc2c(Oc3ccc(NC(=O)c4c(C)nc(C)c(-c5ccc(F)cn5)c4O)cc3F)ccnc2c1 [Compound 217, N-[3-Fluoro-4-[(7-methoxy-1,5-naphthyridin-4-yl)oxy]phenyl]-5-(5-fluoropyridin-2-yl)-4-hydroxy-2,6-dimethylpyridine-3-carboxamide]	≤ 100	≤ 100
COc1cc2nccc(Oc3ccc(NC(=O)c4cc(C(C)=O)c(C)n(-c5ccc(F)cn5)c4=O)cc3F)c2nc1OC [Compound 59, 5-Acetyl-N-[4-[(6,7-dimethoxy-1,5-naphthyridin-4-yl)oxy]-3-fluorophenyl]-1-(5-fluoropyridin-2-yl)-6-methyl-2-oxopyridine-3-carboxamide]	100 to 300	≤ 100
COc1cc2nccc(Oc3ccc(NC(=O)c4cn(CCF)c(C)c(-c5cccs5)c4=O)cc3F)c2nc1OC [Compound 327, N-[4-[(6,7-Dimethoxy-1,5-naphthyridin-4-yl)oxy]-3-fluorophenyl]-1-(2-fluoroethyl)-6-methyl-4-oxo-5-thiophen-2-ylpyridine-3-carboxamide]	100 to 300	≤ 100
COc1cc2nccc(Oc3ccc(NC(=O)c4ccc(C)n(-c5ccnc(O)c5)c4=O)cc3F)c2nc1OC [Compound 232, N-[4-[(6,7-Dimethoxy-1,5-naphthyridin-4-yl)oxy]-3-fluorophenyl]-1-(2-hydroxypyridin-4-yl)-6-methyl-2-oxopyridine-3-carboxamide]	300 to 1000	≤ 100
COc1ccc2nccc(Oc3ccc(NC(=O)c4ccc(C)n(-c5ccc(F)cn5)c4=O)cc3F)c2c1 [Compound 49, N-[3-Fluoro-4-(6-methoxyquinolin-4-yl)oxyphenyl]-1-(5-fluoropyridin-2-yl)-6-methyl-2-oxopyridine-3-carboxamide]	≤ 100	≤ 100
COc1ccc2nccc(Oc3ccc(NC(=O)c4ccc(C)n(-c5ccc(F)cn5)c4=O)cc3F)c2n1 [Compound 47, N-[3-Fluoro-4-[(6-methoxy-1,5-naphthyridin-4-yl)oxy]phenyl]-1-(5-fluoropyridin-2-yl)-6-methyl-2-oxopyridine-3-carboxamide]	≤ 100	≤ 100
COc1cc2nccc(Oc3ccc(NC(=O)c4cc(C(C)=O)c(C)n(-c5ccco5)c4=O)cc3F)c2nc1OC [Compound 236, 5-Acetyl-N-[4-[(6,7-dimethoxy-1,5-naphthyridin-4-yl)oxy]-3-fluorophenyl]-1-(furan-2-yl)-6-methyl-2-oxopyridine-3-carboxamide]	300 to 1000	300 to 1000
COc1ccc2nccc(Oc3ccc(NC(=O)c4ccc(C)n(-c5ncc(F)cc5C)c4=O)cc3F)c2n1 [Compound 53, N-[3-Fluoro-4-[(6-methoxy-1,5-naphthyridin-4-yl)oxy]phenyl]-1-(5-fluoro-3-methylpyridin-2-yl)-6-methyl-2-oxopyridine-3-carboxamide]	≤ 100	≤ 100
COc1cc2nccc(Oc3ccc(NC(=O)c4c5n(cc(-c6ccoc6)c4=O)CCOC5)cc3F)c2nc1OC [Compound 306, N-[4-[(6,7-Dimethoxy-1,5-naphthyridin-4-yl)oxy]-3-fluorophenyl]-7-(furan-3-yl)-8-oxo-3,4-dihydro-1H-pyrido[2,1-c][1,4]oxazine-9-carboxamide]	300 to 1000	≤ 100
COc1cc2nccc(Oc3ccc(NC(=O)c4c(C)nc(C)c(-c5ccc(F)cn5)c4O)cc3F)c2nc1OC [Compound 218, N-[4-[(6,7-Dimethoxy-1,5-naphthyridin-4-yl)oxy]-3-fluorophenyl]-5-(5-fluoropyridin-2-yl)-4-hydroxy-2,6-dimethylpyridine-3-carboxamide]	≤ 100	≤ 100
COc1cc2nccc(Oc3ccc(NC(=O)c4cnc(C)c(-c5ccco5)c4O)cc3)c2cc1OC [Compound 258, N-[4-(6,7-Dimethoxyquinolin-4-yl)oxyphenyl]-5-(furan-2-yl)-4-hydroxy-6-methylpyridine-3-carboxamide]	≤ 100	≤ 100
COCCOc1cc2nccc(Oc3ccc(NC(=O)c4c(C)n(C)c(C)c(-c5ccco5)c4=O)cc3F)c2nc1OC [Compound 254, N-[3-Fluoro-4-[[6-methoxy-7-(2-methoxyethoxy)-1,5-naphthyridin-4-yl]oxy]phenyl]-5-(furan-2-yl)-1,2,6-trimethyl-4-oxopyridine-3-carboxamide]	≤ 100	≤ 100
COc1cc2nccc(Oc3ccc(NC(=O)c4ccc(C)n(-c5ccc(F)cn5)c4=O)cc3F)c2nc1OC [Compound 43, N-[4-[(6,7-Dimethoxy-1,5-naphthyridin-4-yl)oxy]-3-fluorophenyl]-1-(5-fluoropyridin-2-yl)-6-methyl-2-oxopyridine-3-carboxamide]	≤ 100	≤ 100

Now from value to compound:

IC50 (KDR) [nM]	IC50 (Met) [nM]	SMILES
300 to 1000	300 to 1000	COc1cnc2c(Oc3ccc(NC(=O)c4cc(C(C)=O)c(C)n(-c5ccco5)c4=O)cc3F)ccnc2c1 [Compound 238, 5-Acetyl-N-[3-fluoro-4-[(7-methoxy-1,5-naphthyridin-4-yl)oxy]phenyl]-1-(furan-2-yl)-6-methyl-2-oxopyridine-3-carboxamide]
≤ 100	≤ 100	COc1cc2nccc(Oc3ccc(NC(=O)c4cccn(-c5ccc(F)cn5)c4=O)cc3F)c2nc1OC [Compound 42, N-[4-[(6,7-Dimethoxy-1,5-naphthyridin-4-yl)oxy]-3-fluorophenyl]-1-(5-fluoropyridin-2-yl)-2-oxopyridine-3-carboxamide]
300 to 1000	≤ 100	COc1cc2nccc(Oc3ccc(NC(=O)c4cn(C)c(C)c(-c5ccc(F)cn5)c4=O)cc3)c2nc1OC [Compound 86, N-[4-[(6,7-Dimethoxy-1,5-naphthyridin-4-yl)oxy]phenyl]-5-(5-fluoropyridin-2-yl)-1,6-dimethyl-4-oxopyridine-3-carboxamide]
300 to 1000	300 to 1000	COc1cc2nccc(Oc3ccc(NC(=O)c4c5n(cc(-c6ccco6)c4=O)CCOC5)cc3)c2nc1OC [Compound 298, N-[4-[(6,7-Dimethoxy-1,5-naphthyridin-4-yl)oxy]phenyl]-7-(furan-2-yl)-8-oxo-3,4-dihydro-1H-pyrido[2,1-c][1,4]oxazine-9-carboxamide]
≤ 100	≤ 100	COc1cc2nccc(Oc3ccc(NC(=O)c4c(C)nc(C)c(-c5ccc(F)cn5)c4O)cc3)c2nc1OC [Compound 216, N-[4-[(6,7-Dimethoxy-1,5-naphthyridin-4-yl)oxy]phenyl]-5-(5-fluoropyridin-2-yl)-4-hydroxy-2,6-dimethylpyridine-3-carboxamide]
300 to 1000	≤ 100	COCCOc1cc2nccc(Oc3ccc(NC(=O)c4c(C)n(C)c(C)c(-c5coc6ccccc56)c4=O)cc3F)c2nc1OC [Compound 264, 5-(1-Benzofuran-3-yl)-N-[3-fluoro-4-[[6-methoxy-7-(2-methoxyethoxy)-1,5-naphthyridin-4-yl]oxy]phenyl]-1,2,6-trimethyl-4-oxopyridine-3-carboxamide]
≤ 100	≤ 100	COc1cc2nccc(Oc3ccc(NC(=O)c4ccc(C)n(-c5cccnc5)c4=O)cc3F)c2nc1OC [Compound 222, N-[4-[(6,7-Dimethoxy-1,5-naphthyridin-4-yl)oxy]-3-fluorophenyl]-6-methyl-2-oxo-1-pyridin-3-ylpyridine-3-carboxamide]
≤ 100	≤ 100	COc1cc2nccc(Oc3ccc(NC(=O)c4ccc(C)n(-c5ccc(F)cn5)c4=O)cc3)c2nc1OC [Compound 44, N-[4-[(6,7-Dimethoxy-1,5-naphthyridin-4-yl)oxy]phenyl]-1-(5-fluoropyridin-2-yl)-6-methyl-2-oxopyridine-3-carboxamide]
≤ 100	≤ 100	COc1cc2c(Oc3ccc(NC(=O)c4c(C)ncc(-c5ccccn5)c4O)cc3F)ccnc2cn1 [Compound 223, N-[3-Fluoro-4-[(6-methoxy-1,7-naphthyridin-4-yl)oxy]phenyl]-4-hydroxy-2-methyl-5-pyridin-2-ylpyridine-3-carboxamide]
≤ 100	≤ 100	COc1cc2nccc(Oc3ccc(NC(=O)c4ccc(C)n(-c5ccnc(F)c5)c4=O)cc3F)c2nc1OC [Compound 233, N-[4-[(6,7-Dimethoxy-1,5-naphthyridin-4-yl)oxy]-3-fluorophenyl]-1-(2-fluoropyridin-4-yl)-6-methyl-2-oxopyridine-3-carboxamide]
≤ 100	≤ 100	COc1cc2nccc(Oc3ccc(NC(=O)c4c5n(cc(-c6cc(C)cs6)c4=O)CCOC5)cc3F)c2nc1OC [Compound 302, N-[4-[(6,7-Dimethoxy-1,5-naphthyridin-4-yl)oxy]-3-fluorophenyl]-7-(4-methylthiophen-2-yl)-8-oxo-3,4-dihydro-1H-pyrido[2,1-c][1,4]oxazine-9-carboxamide]
